The results in this text go back to publication PMC12102759 (Protein Science : A Publication of the Protein Society, 2025).

The first experiment deals with TLN1 PTB (Homo sapiens, UniProt Q9Y490). The experiment can be described thus: biochemical.
TLN1 PTB, sequence (Q9Y490 309-401): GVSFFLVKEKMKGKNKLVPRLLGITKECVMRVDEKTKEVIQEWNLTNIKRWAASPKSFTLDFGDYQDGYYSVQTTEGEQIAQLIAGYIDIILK
Details: not given
It is filed as binding.
As for Ac-LADLIFTDSKLYIPLE-NH2 [TPTE2 wt], the IC50 (commonly the concentration that inhibits the measured activity by half) stood at 15 µM and the affinity, expressed as Kd, was 4.5 µM.

In the case of Ac-LADLIFTDSALYIPLE-NH2 [TPTE2_K101A], binding was put at a Kd of 15 µM. As to “Ac-LADLIWTDSKLYIPLE-NH2 [TPTE2_92‐107 F97W]”, the affinity, expressed as Kd, was 0.1 µM and the “fold higher affinity than wild‐type TPTE2_92‐107” value is listed as 44 fold. Turning to Ac-LADLIFTDSKLYLPLE-NH2 [TPTE2_I104L], the affinity, expressed as Kd, was 4.5 µM.

The target in another experiment is G3BP1 NTF2 (Homo sapiens, UniProt Q13283). The experiment can be described thus: biochemical. It is filed as binding.
G3BP1 NTF2, sequence (Q13283 1-139): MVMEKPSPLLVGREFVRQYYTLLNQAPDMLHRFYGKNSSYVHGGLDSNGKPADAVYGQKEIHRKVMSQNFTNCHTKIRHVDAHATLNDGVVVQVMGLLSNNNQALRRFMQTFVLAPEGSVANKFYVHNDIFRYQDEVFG
Details: not given
For Ac-DPRITFGGPSDSTGSY-NH2 [N A12D], the concentration for half-maximal inhibition (IC50) was 9.9 µM. For the compound Ac-APRITFGAPSDSTGSY-NH2 [N G19A], it took 5.2 µM to reach half-maximal inhibition (IC50). As for Ac-APLITFGGPSDSTGSY-NH2 [N R14L], inhibition was half-maximal at 11 µM (IC50). Turning to Ac-APRIEFGGPSDSTGSY-NH2 [N12–26 T16E], the “effect of mutation on affinity, in words” value is reported as “sevenfold loss of affinity”. With Ac-APRITFGGFSDSTGSY-NH2 [N P20F], the IC50 was 44 µM. As for Ac-APRITFGGPYDSTGSY-NH2 [N S21Y], half-maximal inhibition (IC50) required 16 µM. On the same count and under the same terms, with Ac-APRIEFGGPSDSTGSY-NH2 [N T15E] the figure was 49 µM; with Ac-AERITFGGPSDSTGSY-NH2 [N P13E], 22 µM.

The experiment is the same for the next values; noted with them: KD.
Turning to Ac-APRITFGGPSDSTGSY-NH2 [N12–26], the Kd – broadly, the constant that tells how readily two partners part at equilibrium – is 2 µM. Regarding Ac-APRITFGGPSDSTGSY-NH2 [N wt], the Kd was 2.3 µM. Same read-out and setting: with Ac-DPRITFGGPSDSTGSY-NH2 [N A12D] the figure was 2.7 µM. The same measure, in the same setting: with Ac-APRITFGAPSDSTGSY-NH2 [N G19A] the figure was 1.1 µM; with Ac-APLITFGGPSDSTGSY-NH2 [N R14L], 3 µM; with Ac-APRIEFGGPSDSTGSY-NH2 [N12–26 T16E], 16 µM.

Compound Ac-APRITFGGFSDSTGSY-NH2 [N P20F] had a Kd of 14 µM. For Ac-APRITFGGPYDSTGSY-NH2 [N S21Y], the Kd turned out to be 4.7 µM. Same read-out and setting: under Ac-AERITFGGPSDSTGSY-NH2 [N P13E] stands 6.8 µM.

Another experiment has as its target NSP3 ADRP (Severe acute respiratory syndrome coronavirus 2, UniProt P0DTC1). The experiment can be described thus: biochemical. The format is binding, SARS‐CoV‐2.
Details: not given
Turning to Ac-STYLHPLSELFGIPLD-NH2 [MBOAT1 L27F], half-maximal inhibition (IC50) required 255 µM and binding was put at a Kd of 82 µM. On the same counts, the results for Ac-STYIHPLSELLGIPLD-NH2 [MBOAT1 L20I] are 429 µM and 152 µM. On the same counts, the results for Ac-STYLHPLSELLGMPLD-NH2 [MBOAT1 I29M] are 268 µM and 86.5 µM. Ac-STYLHPLSELLGIPFD-NH2 [MBOAT1 L31F] returned an IC50 of 285 µM and a Kd of 93 µM. Ac-STYLHPLSELLGIPLD-NH2 [MBOAT1 wt] came in with an IC50 of 175 µM. For the compound Ac-STALHPLSELLGIPLDY-NH2 [MBOAT1 Y19A], the IC50 turned out to be 452 µM and the Kd amounted to 161 µM.

Consider Ac-STYLHPLSELLTIPLD-NH2 [MBOAT1 G28T], for which the IC50 was 311 µM and the Kd worked out at 104 µM.

In another experiment the target is NSP3 UBl1 (Severe acute respiratory syndrome coronavirus 2, UniProt P0DTC1). The experiment can be described thus: biochemical. The format is binding, SARS‐CoV‐2.
Details: not given
On to Ac-PSDEQALLDQLYLALR-NH2 [NCOA2 G1077Q], for which half-maximal inhibition (IC50) was put at 98 µM and the Kd worked out at 19 µM.

“Ac-PSDEQALLQQLYLALR-NH2 [NCOA2 G1077Q D1081Q]”: the IC50 amounted to 66.2 µM and the Kd was found to be 5.1 µM. Consider Ac-PSDEGALLDQLYLALR-NH2 [NCOA2 wt], for which the IC50 came to 139 µM and binding was characterised by a dissociation constant (Kd) of 39 µM. In the same order, the values of Ac-PSDEGALLQQLYLALR-NH2 [NCOA2 D1081Q] are 108 µM and 24 µM.

For the next experiment, the target named is NSP3 SUD-M (Severe acute respiratory syndrome coronavirus 2, UniProt P0DTC1). The experiment can be described thus: biochemical. It is filed as binding, SARS‐CoV‐2.
Details: not given
Ac-QFTEEDLHFVLYGVTPY-NH2 [PRDM14 wt] came in with an IC50 of 400 µM and a Kd of 74 µM. On the same counts, the results for Ac-QFTEEALHFVLYGVTPY-NH2 [PRDM14 D201A] are 1050 µM and 226 µM. On the same counts, the results for Ac-QFTEEDLHFVLEGVTPY-NH2 [PRDM14 Y207E] are 243 µM and 40 µM. Ac-QFTEENLHFVLYGVTPY-NH2 [PRDM14 D201N] had an IC50 of 1430 µM and a Kd of 313 µM.

Ac-QFTEEELHFVLYGVTPY-NH2 [PRDM14 D201E]: the IC50 amounted to 90 µM, the Kd was determined as 5.4 µM and the “fold increase in affinity compared to wild‐type PRDM14 peptide” value amounted to 14 fold. With Ac-QFTEEDLMFVLYGVTPY-NH2 [PRDM14 H203M], half-maximal inhibition (IC50) was put at 124 µM and binding was put at a Kd of 13 µM.

A further experiment has as its target T1, NSP9 (Severe acute respiratory syndrome coronavirus 2, UniProt P0DTC1). The experiment can be described thus: biochemical. The format is binding, SARS‐CoV‐2.
Details: not given
Ac-QGAWLGIPEPWEPLLD-NH2 [NOTCH4 A1612I]: it took 149 µM to reach half-maximal inhibition (IC50) and the Kd was found to be 50 µM. On the same counts, the results for Ac-QGSWLGAPEPWEPLLD-NH2 [NOTCH4 A1608S] are 583 µM and 216 µM. Ac-QGAWLPAPEPWEPLLD-NH2 [NOTCH4 G1611P] came in with a Kd of 410 µM.

Take Ac-QGVWLGAPEPWEPLLD-NH2 [NOTCH4 A1608V]: the IC50 was found to be 59 µM and binding was put at a Kd of 16 µM. With Ac-QGAWLGAPVPWEPLLD-NH2 [NOTCH4 E1614V], the midpoint of inhibition, the IC50, lay at 178 µM. Ac-QGAWLGAPEYWEPLLD-NH2 [NOTCH4 P1615Y] displayed an IC50 of 152 µM and a Kd of 51 µM.

On to Ac-QGAWLGAPEPWFPLLD-NH2 [NOTCH4 E1617F], for which the IC50 was determined as 109 µM and the Kd came to 35 µM. In the case of Ac-QGAWLGAVEPWEPLLD-NH2 [NOTCH4 P1613V], the IC50 came to 105 µM and binding was characterised by a dissociation constant (Kd) of 33 µM.

“Ac-QGVWLGAVEPWEPLLD-NH2 [NOTCH4 A1608V P1613V]” had an IC50 of 33.4 µM and a Kd of 5.9 µM. With Ac-QGAWLDAPEPWEPLLD-NH2 [NOTCH4 G1611D], the Kd was determined as 160 µM. In turn, Ac-QGAWLGAPEPWEPLLD-NH2 [NOTCH4 wt] had an IC50 of 205 µM and a Kd of 72 µM.

In turn, Ac-QGAWLGAPEPYEPLLD-NH2 [NOTCH4 W1616Y] had an IC50 of 167 µM and a Kd of 57 µM.

In another experiment the target is T1, NSP9. The experiment can be described thus: biochemical. The format is binding, SARS‐CoV‐2.
Details: not given
The source holds these as a separate data set.
`CC[C@H](C)[C@H](NC(=O)CNC(=O)[C@H](CCC(=O)O)NC(=O)[C@H](C)NC(=S)Nc1ccc2c(c1)C(=O)OC21c2ccc(O)cc2Oc2cc(O)ccc21)C(=O)N[C@@H](CC(=O)O)C(=O)N[C@H](C(=O)NCC(=O)N[C@@H](CCC(=O)O)C(=O)N[C@@H](CCSC)C(=O)N1CCC[C@H]1C(=O)N[C@@H](CO)C(=O)N[C@@H](Cc1ccc(O)cc1)C(=O)N[C@@H](CC(=O)O)C(=O)N[C@@H](CC(C)C)C(=O)N[C@H](C(=O)N[C@@H](CC(C)C)C(=O)O)C(C)C)[C@@H](C)CC` showed a Kd of 15.5 µM.

The test system of another experiment is G3BP1 NFT2.
Assay: not given
It is filed as binding, human. The following applies: library DMS-BM; bait G3BP1 NFT2; prey CAPRIN1; AQMQGPYNFIQDSM(averaged): mean of the two overlapping peptides over the shared positions.
Take “AQMQGPYNFIQDSM(averaged) Q11I (AQMQGPYNFIIDSM)”: the “DMS position-specific score (PSSM value) per amino-acid substitution, averaged” value is reported as 0.

On to “AQMQGPYNFIQDSM(averaged) S13F (AQMQGPYNFIQDFM)”, for which the “DMS position-specific score (PSSM value) per amino-acid substitution, averaged” value is on record as 0.05713. The same measure, in the same setting: under “AQMQGPYNFIQDSM(averaged) M3H (AQHQGPYNFIQDSM)” stands 0.02176; under “AQMQGPYNFIQDSM(averaged) G5A (AQMQAPYNFIQDSM)”, 0.003112; under “AQMQGPYNFIQDSM(averaged) M14W (AQMQGPYNFIQDSW)”, 0.06336. Same read-out and setting: with “AQMQGPYNFIQDSM(averaged) A1W (WQMQGPYNFIQDSM)” the figure was 0.05589.

For the compound “AQMQGPYNFIQDSM(averaged) Q2W (AWMQGPYNFIQDSM)”, the “DMS position-specific score (PSSM value) per amino-acid substitution, averaged” value was 0.05769. The same measure, in the same setting: with “AQMQGPYNFIQDSM(averaged) Y7G (AQMQGPGNFIQDSM)” the figure was 0.05778; with “AQMQGPYNFIQDSM(averaged) N8F (AQMQGPYFFIQDSM)”, 0.00737; with AQMQGPYNFIQDSM(averaged) D12D, 0.268. The same measure, in the same setting: under “AQMQGPYNFIQDSM(averaged) Q2I (AIMQGPYNFIQDSM)” stands 0.05266.

A further experiment relates to USP7 MATH.
Assay: not given
The format is binding, human. Particulars: DMS-CoV library, bait USP7 MATH, prey N, parental peptide SKQLQQSMSSADSTQA, label suffix = wt residue, displayed residue (same letter = wild type), x = no value.
Take “SKQLQQSMSSADSTQA T14V (SKQLQQSMSSADSVQA)”: the “DMS PSSM value (matrix of displayed amino acid x peptide position)” value (from here on “DMS PSSM value”) amounted to 1. For the compound SKQLQQSMSSADSTQA M8M, the “DMS PSSM value” value turned out to be 1. The same measure, in the same setting: with SKQLQQSMSSADSTQA D12D the figure was 1; with SKQLQQSMSSADSTQA Q6Q, 1. Consider SKQLQQSMSSADSTQA S10S, for which the “DMS PSSM value” value turned out to be 1. For the compound SKQLQQSMSSADSTQA S7S, the “DMS PSSM value” value is 1.

SKQLQQSMSSADSTQA Q5Q: the “DMS PSSM value” value came out at 1. As to SKQLQQSMSSADSTQA Q15Q, the “DMS PSSM value” value is 1.

Turning to SKQLQQSMSSADSTQA Q3Q, the “DMS PSSM value” value came out at 1.

SKQLQQSMSSADSTQA K2V (SVQLQQSMSSADSTQA): the “DMS PSSM value” value turned out to be 1. As to SKQLQQSMSSADSTQA A11A, the “DMS PSSM value” value stood at 1.

As to SKQLQQSMSSADSTQA S1S, the “DMS PSSM value” value came out at 1. The same measure, in the same setting: with SKQLQQSMSSADSTQA S9S the figure was 1.

On to SKQLQQSMSSADSTQA S13S, for which the “DMS PSSM value” value came to 1.
